Experimental data as given in patent US6605424B1, “Method of detecting inhibitors of agonist-specific desensitization” (Duke University, priority 1989, dated 2003).
No end group written: not given here.

What was measured:
[1] = test system: β2ARs in permeabilized A431 cells; test: Desensitization of β2ARs in permeabilized A431 cells; assay type: cell-based, human
Description: Permeabilization of cells was accomplished as follows. Human epidermoid carcinoma A431 cells were grown to about 95% confluence in Dulbecco's modified Eagle's medium supplemented with 10% fetal calf serum. Cells were harvested with collagenase, washed three times with calcium-free phosphate-buffered saline (PBS), then washed twice in 150 mM potassium glutamate/10 mM Hepes/5 mM EGTA/7 mM MgCl2, pH 7.1 (KG buffer), and finally resuspended in KG buffer supplemented with 5 mM glucose and 2 mM ATP (KG-A buffer) at a density of 4×10^7 cells per ml.
At 4×10^7 cells per ml, about 0.015% digitonin was necessary to achieve permeabilization of >95% cells as assessed by staining with trypan blue. In all experiments, digitonin was added stepwise until >95% of the cells were trypan blue positive.

βAR kinase [2] = biological target: T1, βAR kinase (Bos taurus, UniProt P21146); test: Phosphorylation of purified reconstituted β2ARs by purified βAR kinase (Example II); assay type: biochemical, bovine
T1 construct: βAR kinase was purified from bovine cerebral cortex; from tissue; host or cells: bovine cerebral cortex
T1 sequence (P21146 1-689): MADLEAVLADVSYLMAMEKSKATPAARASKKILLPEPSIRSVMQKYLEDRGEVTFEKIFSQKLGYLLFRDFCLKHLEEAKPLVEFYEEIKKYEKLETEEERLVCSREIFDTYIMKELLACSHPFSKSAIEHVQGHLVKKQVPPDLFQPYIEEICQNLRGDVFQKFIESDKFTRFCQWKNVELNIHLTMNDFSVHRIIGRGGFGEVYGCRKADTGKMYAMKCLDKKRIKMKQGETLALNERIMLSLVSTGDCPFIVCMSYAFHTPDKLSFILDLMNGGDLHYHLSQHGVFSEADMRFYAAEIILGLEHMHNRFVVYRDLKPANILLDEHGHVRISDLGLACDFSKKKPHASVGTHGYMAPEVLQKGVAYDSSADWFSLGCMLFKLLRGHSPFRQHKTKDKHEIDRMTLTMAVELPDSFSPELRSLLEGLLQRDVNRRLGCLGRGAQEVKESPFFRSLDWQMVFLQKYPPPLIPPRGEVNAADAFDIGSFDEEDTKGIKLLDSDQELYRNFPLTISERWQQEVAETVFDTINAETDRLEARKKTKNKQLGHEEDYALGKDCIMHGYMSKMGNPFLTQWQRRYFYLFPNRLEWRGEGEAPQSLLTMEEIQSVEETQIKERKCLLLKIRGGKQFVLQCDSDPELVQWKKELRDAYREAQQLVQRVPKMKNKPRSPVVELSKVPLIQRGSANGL
Description: FIG. 7. […] (Inset) Relevant section of a representative autoradiogram. Data are means±SEM of three independent experiments. […] Desensitization was measured as the percent loss of stimulation by 10 μM (−)-isoproterenol of adenylyl cyclase activity in membranes. […] Data are means±SEM of four independent experiments.
Purified β2ARs were inserted into phosphatidylcholine vesicles by chromatography on Extracti-gel, followed by polyethylene glycol treatment and centrifugation at 280,000×g for 90 min (Cerione et al (1984) Biochemistry 23:4519-4525). Phosphorylation of the reconstituted receptors by purified βAR kinase was done in the presence of 50 μM (−)-isoproterenol as described (Benovic et al (1987) J. Biol. Chem. 262:9026-9032). Subsequently, the samples were subjected to sodium dodecyl sulfate polyacrylamide gel electrophoresis on 10% gels (Laemmli (1970) Nature 227:680-685). The phosphorylated β2ARs were visualized by autoradiography, and the corresponding bands were cut out and their content of ^32P quantified.

[3] = biological target: protein kinase C and cyclic nucleotide-dependent protein kinases; conditions: cited from earlier work
protein kinase A = protein kinase A (Homo sapiens, UniProt P17612); test: Peptides as substrates for protein kinase A; assay type: biochemical
βAR kinase [4] = biological target: T1, βAR kinase; test: Reversal of heparin inhibition of βAR kinase by polycations; assay type: biochemical, bovine; conditions: read-out: EC50 for reversal of heparin inhibition; in the presence of 1.1 μM heparin
Description: (§1) Urea-treated rod outer segments were phosphorylated with βAR kinase as follows. Urea-treated rod outer segments (˜4 μg of rhodopsin) were incubated with βAR kinase (˜0.1 μg) for 10-15 min at 30° C. in the presence of 40 mM Tris-HCl, pH 7.4, 10 mM NaCl, 5 mM MgCl2, 1.5 mM EDTA, and 65 μM ATP (˜1 cpm/fmol) (total reaction volume was 40 μl). Reactions were stopped by the addition of 40 μl of sodium dodecyl sulfate sample buffer (see below) followed by sodium dodecyl sulfate-polyacrylamide gel electrophoresis. After autoradiography, the phosphorylated rhodopsin bands were excised and counted.

βAR kinase [5] = biological target: T1, βAR kinase; test: Phosphorylation of rhodopsin (urea-treated rod outer segments) by βAR kinase; assay type: biochemical, bovine; conditions: read-out: IC50 (concentration of compound which gave 50% inhibition of βAR kinase); rhodopsin as substrate
Description: (§2) βAR kinase was purified from bovine cerebral cortex by modification of procedure of Benovic et al (J. Biol. Chem. (1987) 262:9026-9032). Briefly, 250 g of bovine cerebral cortex were homogenized with a Brinkmann tissue disrupter and centrifuged (40,000×g, 30 min). The supernatant was then precipitated with 13-26% ammonium sulfate. This material was initially chromatographed on a Ultrogel AcA34 column equilibrated with 5 mM Tris-HCl, pH 7.5, 2 mM EDTA, 10 μg/ml leupeptin, 5 μg/ml pepstatin, 10 μg/ml benzamidine, 0.2 mM phenylmethylsulfonyl fluoride (buffer A). The peak activity was diluted with an equal volume of buffer A containing 0.04% Triton X-100 before being applied to a DEAE-Sephacel column. Elution was accomplished with a 0-80 mM NaCl gradient in buffer A containing 0.02% Triton X-100. The peak activity was then applied to a CM-Fractogel column and eluted with a 0-100 mM NaCl gradient in buffer A containing 0.02% Triton X-100. The purified kinase is stable at 4° C. for several months. For these studies the βAR kinase preparations were >75% pure.
(§3) Rod outer segments were prepared from bovine retinas by stepwise sucrose gradient centrifugation (Wilden et al Biochemistry (1982) 21:3014-3022). Rhodopsin kinase-free rod outer segments were prepared by treatment with 5 M urea (Shichi et al J. Biol. Chem. (1978) 253:7040-7046) and consisted of ˜95% rhodopsin, as assessed by Coomassie Blue staining of sodium dodecyl sulfate-polyacrylamide gels.
as §1
Sodium dodecyl sulfate-polyacrylamide gel electrophoresis was performed by the method of Laemmli (Nature (1970) 227:680-685) using 10% homogeneous polyacrylamide slab gels. Sample buffer contained 8% sodium dodecyl sulfate, 10% glycerol, 5% 3-mercaptoethanol, 25 mM Tris-HCl, pH 6.5, and 0.003% bromphenol blue. After electrophoresis, gels were dried with a Bio-Rad gel dryer prior to autoradiography.

[6] = substrate: CC[C@H](C)[C@H](NC(=O)[C@H](Cc1ccc(O)cc1)NC(=O)[C@H](CC(N)=O)NC(=O)[C@H](CC(C)C)NC(=O)[C@@H]1CCCN1C(=O)[C@@H](NC(=O)[C@H](CCCNC(=N)N)NC(=O)[C@H](CC(C)C)NC(=O)[C@H](CCCCN)NC(=O)[C@H](CCCCN)NC(=O)[C@H](Cc1c[nH]cn1)NC(=O)[C@H](CCC(N)=O)NC(=O)[C@@H](NC(=O)[C@@H](NC(=O)[C@@H](N)C(C)C)[C@@H](C)O)C(C)C)[C@@H](C)O)C(=O)O; test: as above; assay type: biochemical, bovine; conditions: other: rhodopsin as substrate, absence of heparin; 30.0 °C
Description: as §2, with “The peak activity was then applied to a CM-Fractogel column and eluted with a 0-100 mM NaCl gradient in buffer A containing 0.02% Triton X-100. The purified kinase is stable at 4° C. for several months. For these studies the βAR kinase preparations were >75% pure.” left out
as §3
Urea-treated rod outer segments were phosphorylated with βAR kinase as follows. […] After autoradiography, the phosphorylated rhodopsin bands were excised and counted. […]

## CC1CNCCN1S(=O)(=O)c1cccc2cnccc12 (stereo not shown) [Peptide H7, 1-5(isoquinolinesulfonyl)-2-methylpiperazine]
[1]; 100 μM
  Inhibition of Desensitization, %: 22 ± 14%
[1]; Homo sapiens, A-431, 1 μM
  inhibition at 1 µM: 0%
[1]; Homo sapiens, A-431, 10 μM
  inhibition at 10 µM: 7 ± 5%
[1]; Homo sapiens, A-431, 100 μM
  inhibition at 100 µM: ~20%
βAR kinase [2]; 1 μM
  inhibition at 1 µM: 3 ± 4%
βAR kinase [2]; 10 μM
  inhibition at 10 µM: 2 ± 7%
βAR kinase [2]; 100 μM
  Inhibition of βAR kinase, %: 19 ± 6%
  inhibition at 100 µM: ~20%
[3]
  Ki: ~5 µM

## QELLCLRRSSSKAYGNGYS [CT-1 (337-355)]
Protein kinase A
  substrate for protein kinase A: serve as substrates for protein kinase A

## polylysine
βAR kinase [4]
  EC50: ~2.8 µM
βAR kinase [5]
  IC50: ~69 µM

B1: βAR kinase (Bos taurus) (protein)
chain: MADLEAVLADVSYLMAMEKSKATPAARASKKILLPEPSIRSVMQKYLEDRGEVTFEKIFSQKLGYLLFRDFCLKHLEEAKPLVEFYEEIKKYEKLETEEERLVCSREIFDTYIMKELLACSHPFSKSAIEHVQGHLVKKQVPPDLFQPYIEEICQNLRGDVFQKFIESDKFTRFCQWKNVELNIHLTMNDFSVHRIIGRGGFGEVYGCRKADTGKMYAMKCLDKKRIKMKQGETLALNERIMLSLVSTGDCPFIVCMSYAFHTPDKLSFILDLMNGGDLHYHLSQHGVFSEADMRFYAAEIILGLEHMHNRFVVYRDLKPANILLDEHGHVRISDLGLACDFSKKKPHASVGTHGYMAPEVLQKGVAYDSSADWFSLGCMLFKLLRGHSPFRQHKTKDKHEIDRMTLTMAVELPDSFSPELRSLLEGLLQRDVNRRLGCLGRGAQEVKESPFFRSLDWQMVFLQKYPPPLIPPRGEVNAADAFDIGSFDEEDTKGIKLLDSDQELYRNFPLTISERWQQEVAETVFDTINAETDRLEARKKTKNKQLGHEEDYALGKDCIMHGYMSKMGNPFLTQWQRRYFYLFPNRLEWRGEGEAPQSLLTMEEIQSVEETQIKERKCLLLKIRGGKQFVLQCDSDPELVQWKKELRDAYREAQQLVQRVPKMKNKPRSPVVELSKVPLIQRGSANGL
notes: βAR kinase was purified from bovine cerebral cortex; from tissue; host or cells: bovine cerebral cortex
[6]
  Km: 5.3 µM
